Laboratory results reported in patent US20110190399A1 (priority 2008, published 2011).

Columns and labels:
[1] = Effect on liver inflammation in human volunteers; type: in vivo; settings: 500 mg/day/person orally, 15 days
Source text: Results of said tests are depicted in FIGS. 15.1-15.5.

[2] = Effect on fasting blood sugar levels in human volunteers; type: in vivo; settings: 500 mg/day/person orally, 15 days
Source text: The results of the analysis are depicted in FIG. 11.

[3] = Effect on globulin level, eosinophils, neutrophils and platelet count of human volunteers; type: in vivo; settings: 500 mg/day/person orally, 15 days
hemozoin synthesis = assay: In vivo inhibition of hemozoin synthesis in P. yoelii infected mice; settings: oral, 3 days, curcumin fed bound to chitosan nanoparticles
Protocol: Infected mice were divided into 4 groups (each having 4 mice), namely: • 1. Control group which was further sub-divided into the infected control group, olive oil control group and chitosan control group • 2. Infected and fed with Chloroquinine (1.7 mg in 100 μl of normal saline/mouse/day orally) • 3. […] Infected and fed with Chitosan nanoparticles (200 micrograms of chitosan/day) orally
Red blood cells were purified on the third day of treatment. […] The cells were centrifuged at 10,000 g for 10 min, supernatant was discarded and the pellet washed in 1 ml of 0.1 M alkaline bicarbonate buffer (pH 9.2).

[4] = Effect on kidney function in human volunteers; type: in vivo; settings: 500 mg/day/person orally
[5] = Effect on hemoglobin and RBC level of human volunteers; type: in vivo; settings: 500 mg/day/person orally, 15 days

Row | levels of eosinophiles, neutrophils and platelets [3] | serum creatinine, urea and potassium levels ([4]; human volunteers, before and after 15 days) | SMILES | ALP and Bilirubin levels [1] | adverse effect on liver function [1] | fasting glucose level [2] | hemozoin formation in vivo (hemozoin synthesis) | change in potassium level ([4]; human volunteers (7), 15 days) | change in serum creatinine and urea levels ([4]; human volunteers, 15 days) | blood hemoglobin and RBCs (anemic condition, RBC counts) [5]
1 | no significant effect | within the normal range | COc1cc(/C=C/C(=O)CC(=O)/C=C/c2ccc(O)c(OC)c2)ccc1O [curcumin, Curcumin] | in the normal range except in one or two cases | do not have any adverse effect on liver function | not altered | inhibited hemozoin formation in vivo | increase | slight decrease | no adverse effect
2 | – | – | CCN(CC)CCCC(C)Nc1ccnc2cc(Cl)ccc12 (stereo not shown) [chloroquine] | – | – | – | inhibited hemozoin formation in vivo | – | – | –
